Data reported in EP0302967A2, “Quinazoline derivative, processes for its production, and cerebral dysfunction remedying agent comprising it as active ingredient” (priority 1987, dated 1989).
pIC50: −log10 of the molar value. Where two headings read alike, the source gives them in different places. Marks after values point to notes of the source that are not given here.

Key:
[1] = test system: Male mice of the ddY strain; assay: Anti-CO2-induced amnesia activity (one-trial passive avoidance response); assay type: in vivo; settings: retrieval 24 hours later, max 300 seconds
Procedure: Male mice of the ddY strain (body weight 20 - -30 g, 30 per group) were used. Anti-CO₂-induced amnesia activity was determined by using one-trial passive avoidance response as an index. The experimental device consisted of two compartments, one illuminated and the other dark, with a guillotine door in the boundary of the two compartments permitting free passage of the mice through it. In an acquisition trial, a mouse was placed in the illuminated compartment and allowed to enter the dark one. As soon as the mouse entered the dark compartment, the door was shut, and an electrical shock (0.5 mA, 0.2 sec.) was applied through the grid floor. Thus, the mouse was caused to learn that it receives an electric shock upon entering the dark room. In a retrieval trial, the mouse was again placed in the illuminated compartment 24 hours after the acquisition trial, and the time elapsed until it entered the dark compartment (response latency) was measured to an extent of 300 seconds at the longest. (One-trial passive avoidance response) Treatment of inducing amnesia by carbon dioxide was performed by putting the mouse in a 1.6-liter plastic container having a gas intake opening and an gas discharging opening immediately after the acquisition trial, and passing 100% carbon dioxide gas for 14 seconds at a flow rate of 8 liters/min. […]

[2] = Acute toxicity (LD50 by the Weil method); settings: male, ddY, mouse, in vivo, dead animals counted one week later, read-out: LD₅₀
Procedure: Male ddY mice (body weight 20 - 26 g, 5 per group) were allowed to fast overnight. The compound of this invention (dihydrochloride) dissolved in distilled water was orally (p.o.) administered. From the number of dead animals counted one week later, the LD₅₀ (p.o.) was calculated by the Weil method.
Then, the compound of this invention (dihydrochloride) was dissolved in saline and intraperitoneally (i.p.) administered to the mice, and the LD₅₀ value (i.p.) was measured similarly.

[3] = test system: Male mice of the ddY strain; assay: Anti-hypoxic activity: brain protection against complete ischemia by decapitation (gasping persistent time); assay type: in vivo; settings: decapitated one hour later, control group taken as 100 %, mean ± standard error
Procedure: Male mice of the ddY strain (body weight 20-25g, 5 per group) were orally given the compound of the invention (dihydrochloride) dissolved in 1% gum arabic solution. One hour later, the mice were decapitated, and the time elapsed until a gasping-like mouth opening movement appearing after decapitation ceased (gasping persistent time) was measured, and compared with that obtained with the control group (the group to which 1% gum arabic solution was administered).

[4] = test system: Male mice of the ddY strain; assay: Anti-scopolamine-induced amnesia activity (one-trial passive avoidance response); assay type: in vivo; settings: scopolamine hydrobromide 1 mg/kg i.p.; for Mean latency (seconds): p<0.01
Procedure: Male mice of the ddY strain (body weight 20-25g, 20 per group) were used, and the activity of the test compound on deficit of memory induced by scopolamine hydrobromide (a muscarinic acetylcholine receptor antagonist) was examined using one-trial passive avoidance response as an index. Using the same experimental device as in Test Example 1, the same acquisition trial and retrieval trial as in Test Example 1 were carried out (one-trial passive avoidanse response). Scopolamine hydrobromide (1 mg/kg) was intra peritoneally (i.p.) administered to the animals 20 minutes before the acquisition trial. The compound of the invention (dihydrochloride) was dissolved in 1 % gum arabic solution, and intraperitoneally administered immediately after the acquisition trial, and orally (p.o.) administered 60 minutes before the acquisition trial. A 1% solution of gum arabic was administered to the control group.

[5] = test system: Male mice of the ddY strain; assay: Anti-hypoxic activity: brain protection against normobaric hypoxia (survival time in 100% nitrogen); assay type: in vivo; settings: one hour before 100% nitrogen, control group taken as 100 %, mean ± standard error, p<0.01
Procedure: Male mice of the ddY strain (body weight 20-25g, 5 per group) were orally administered with the compound of the invention (dihydrochloride) dissolved in a 1% gum arabic solution. One hour after the administration, the mouse was put in a transparent plastic container (capacity 27 liters) through which 100% nitrogen was passed at a rate of 80 liters/min. The time elapsed until the animal died (the survival time) was measured, and compared with that obtained with the control group (the group to which 1% gum arabic solution was administered).

[6] = test system: brain homogenate; assay: Lipid peroxide formation inhibiting activity (antioxidant activity), MDA formed by autoxidation; assay type: biochemical, Rats; settings: for Antioxidant activity (n=4) Mean ± standard error (%): percent inhibition of autoxidation on the brain homogenate, 37 °C, 30 minutes
Procedure: The effect of the test compound on the formation of lipid peroxide by autoxidation was determined by the amount of malondialdehyde (MDA) formed.
Rats were decapitated, and the cerebrum was taken out and homogenized with 4 ml, per gram of the cerebrum, of 50 mM phosphate saline-buffer (pH 7.4) and centrifuged (2800 rpm, 10 minutes). The supernatant was taken into a 10 ml test tube to obtain a brain homogenate. It was frozen at -70 °C and stored.
The brain homogenate was defrozen, and immediately then, diluted to 10-fold with the aforesaid phosphate saline-buffer. A 2 ml portion of the dilution was taken into a 10 ml test tube cooled with ice, and used to measure its antioxidant activity. Twenty microliters of an aqueous solution of the compound of this invention (dihydrochloride) was added. The amount of MDA immediately after the addition was measured as shown below (MDA 0 time). The mixture was incubated at 37 °C for 30 minutes. The reaction was stopped by adding 400 microliters of 35% perchloric acid solution. After cooling with ice, the cooled mixture was centrifuged (2800 rpm, 10 minutes). To 1 ml of the supernatant, 0.5 ml of 0.5 % thiobarbituric acid solution dissolved in 50% acetic acid solution was added, and the mixture was heated at 100 °C for 15 minutes. After cooling with ice, the absorbance of the solution at 532 nm was measured, and the amount of MDA formed was determined (MDAtest).
As a control, the amount of MDA (MDAcont) was determined as above.
The antioxidant activity of the compound of the invention was expressed in terms of percent inhibition of autoxidation on the brain homogenate. The calculation was based on the following equation. [formula]

SMILES: C=CCN1CCN(c2nc(OCCCCC)c3ccccc3n2)CC1.Cl.Cl [Compound of the invention (2HCl), 2-(4-allyl-1-piperazinyl)-4-pentyloxyquinazoline dihydrochloride]
- Mean latency ([1]; 10 mg/kg orally 60 minutes before acquisition trial, control group 155.3): 185.8 s
- Mean latency (seconds) ([1]; 30 mg/kg orally 60 minutes before acquisition trial, control group 155.3, p<0.01): 230.0**1) seconds
- LD50 at 1 week ([2]; ip, in saline): 220 mg/kg
- LD50 at 1 week ([2]; po, in distilled water, fasted overnight): 1270 mg/kg
- Mean gasping persistent time (%) ([3]; 10 mg/kg orally): 107 ± 6%
- Mean gasping persistent time (%) ([3]; 30 mg/kg orally, p<0.01): 139 ± 6 ** 2) %
- Mean gasping persistent time (%) ([3]; 100 mg/kg orally, p<0.01): 187 ± 8 %
- Mean latency (seconds) ([4]; 3 mg/kg (as free base) i.p. immediately after acquisition trial, control group 92.0): 190.4 **2) seconds
- Mean latency (seconds) ([4]; 10 mg/kg (as free base) i.p. immediately after acquisition trial, control group 92.0): 185.1 ** seconds
- Mean latency ([4]; 10 mg/kg (as free base) p.o. 60 minutes before acquisition trial, control group 63.1): 59.8 s
- Mean latency (seconds) ([4]; 30 mg/kg (as free base) i.p. immediately after acquisition trial, control group 92.0): 208.7 ** seconds
- Mean latency (seconds) ([4]; 30 mg/kg (as free base) p.o. 60 minutes before acquisition trial, control group 63.1): 144.6 ** seconds
- Survival time (%) ([5]; 10 mg/kg orally): 122 ± 5 [1)**2)] %
- Survival time (%) ([5]; 30 mg/kg orally): 151 ± 7 %
- Antioxidant activity (n=4) Mean ± standard error (%) ([6]; 10 µM): 6.4 ± 7.7%
- Antioxidant activity (n=4) Mean ± standard error (%) ([6]; 30 µM): 27.1 ± 6.8%
- Antioxidant activity (n=4) Mean ± standard error (%) ([6]; 100 µM): 77.9 ± 3.1%
- Antioxidant activity (n=4) Mean ± standard error (%) ([6]; 300 µM): 93.4 ± 2.2%
- pIC50 ([6]; inhibition of autoxidation (MDA formation) on the brain homogenate, read-out: 50% inhibition concentration (IC₅₀)): 4.28
